Results as given in patent US9290536B2, “C4 monomethyl triterpenoid derivatives and methods of use thereof” (Reata Pharmaceuticals, Inc., priority 2011, dated 2016).

Experiments:
NQO1-ARE = NQO1-ARE luciferase reporter assay in HuH7 cells (Nrf2 transcriptional activity); type: cell-based; settings: Homo sapiens, Huh-7, 62.5 nM compound, 18 h, Firefly normalized to Renilla, over DMSO vehicle control
Description: NQO1-ARE Luciferase Reporter Assay.
This assay allows for quantitative assessment of the endogenous activity of the Nrf2 transcription factor in cultured mammalian cells. Expression of Firefly luciferase from NQO1-ARE luciferase reporter plasmid is controlled by binding of Nrf2 to a specific enhancer sequence corresponding to the antioxidant response element (ARE) that was identified in the promoter region of the human NADPH:quinone oxidoreductase 1 (NQO1) gene (Xie et al., 1995). The plasmid was constructed by inserting a sequence:
encompassing the human NQO1-ARE into the pLuc-MCS vector using HindIII/XhoI cloning sites (GenScript Corp., Piscataway, N.J.). The assay is performed in HuH7 cells maintained in DMEM (Invitrogen) supplemented with 10% FBS and 100 U/ml (each) of penicillin and streptomycin. For the assay, cells are plated in 96-well plates at 17,000 cells per well. Twenty four hours later, the cells are co-transfected with 50 ng each of NQO1-ARE reporter plasmid and pRL-TK plasmid using Lipofectamine 2000 transfection reagent (Invitrogen). pRL-TK plasmid constitutively expresses Renilla luciferase and is used as an internal control for normalization of transfection levels. Thirty hours after transfection, the cells are treated with compounds (at concentrations ranging from 0 to 1 μM) for eighteen hours. Firefly and Renilla luciferase activity is assayed by Dual-Glo Luciferase Assay (Promega Corp., Madison, Wis.), the luminescence signal is measured on an L-Max II luminometer (Molecular Devices). Firefly luciferase activity is normalized to the Renilla activity, and fold induction over a vehicle control (DMSO) of normalized Firefly activity is calculated. The fold induction at 62.5 nM concentration is used for comparing relative potencies of compounds to induce Nrf2 transcriptional activity. See Xie et al., 1995, which is incorporated herein by reference.

[1] = tested on: IFNγ-induced NO production in RAW264.7; experiment: Suppression of IFNγ-induced NO production in RAW264.7 mouse macrophages (Griess reagent, normalized to WST-1 cell viability); type: cell-based; settings: RAW264.7 cells, 2 h pre-treatment with drug (0-200 nM), then IFNγ for 24 h
Procedure, shortened: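 RAW264.7 cells pre-treated 2 h with compound (0-200 nM), then stimulated 24 h with recombinant mouse IFNγ. NO in medium measured by Griess reagent, viability by WST-1; IC50 from suppression of IFNγ-induced NO normalized to viability.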

Compound | fold induction at 0.0625 µM (NQO1-ARE) | IC50 [1] [nM]
COC(=O)[C@]12CCC(C)(C)C[C@H]1[C@H]1C(=O)C=C3[C@@]4(C)C=C(C#N)C(=O)[C@@H](C)[C@@H]4CC[C@@]3(C)[C@]1(C)CC2 [TX63435] | 7.2 | 1
C[C@@H]1C(=O)C(C#N)=C[C@]2(C)C3=CC(=O)[C@@H]4[C@@H]5CC(C)(C)CC[C@]5(C(=O)O)CC[C@@]4(C)[C@]3(C)CC[C@@H]12 [TX63520] | 5.3 | 10.1
C[C@@H]1C(=O)C(C#N)=C[C@]2(C)C3=CC(=O)[C@@H]4[C@@H]5CC(C)(C)CC[C@]5(NC(=O)C(C)(F)F)CC[C@@]4(C)[C@]3(C)CC[C@@H]12 [TX63682] | 5.7 | 1.1
C[C@@H]1C(=O)C(C#N)=C[C@]2(C)C3=CC(=O)[C@]45OC(=O)[C@@]6(CCC(C)(C)C[C@H]64)CC[C@@]5(C)[C@]3(C)CC[C@@H]12 [TX63555] | 6.1 | 1.4
C[C@@H]1C(=O)C(C#N)=C[C@]2(C)C3=CC(=O)[C@@H]4[C@@H]5CC(C)(C)CC[C@]5(CO)CC[C@@]4(C)[C@]3(C)CC[C@@H]12 [TX63545] | 7.2 | 0.7
